According to patent US8410161B2, “Thioxanthone ring system derivatives” (National Defense Medical Center, priority 2010, dated 2013):

Tests used:
[1] = system: A control cell lines; test: MTT assay, A control cell lines (lung cancer cell); type: cell-based
Excerpt: Please refer to Table 1 and FIGS. 4A-4C. According to a MTT assay (Table 1), various cell viabilities of the A control cell lines can be obtained and illustrated in FIG. 4A while the compounds No. 2˜30 are used to treat A control cell lines, wherein A control cell lines are lung cancer cell.

[2] = system: A3 cell lines; test: MTT assay, A3 cell lines (lung cancer stem cell); type: cell-based
Excerpt: Please to FIG. 4B, various cell viabilities of the A3 cell lines can be obtained through the MTT assay and illustrated in FIG. 4B while the compounds No. 1˜30 are used to treat A3 cell lines, wherein A3 cell lines are lung cancer stem cell.

[3] = MTT assay, HEL299 fibroblast; type: cell-based; conditions: human
Excerpt: Please refer to FIG. 4C, various cell viabilities of the HEL299 cell lines can be obtained through the MTT assay while the compounds No. 1˜30 are used to treat HEL299 cell lines, wherein HEL299 cell lines are fibroblast.

[4] = system: CCRF-CEM; test: NCI in vitro DTP human cell line screen, CCRF-CEM; type: cell-based; conditions: Leukemia, 1.00E−5 Molar
Method: (§1) Then, a cell toxicity assay of the cancer lines made by National Cancer Institute will be discussed as follows. The cell toxicity assay is performed by choosing ten compounds (existing certification numbers) from the 59 compounds disclosed in the present invention first.

[5] = system: HL-60(TB); test: NCI in vitro DTP human cell line screen, HL-60(TB); type: cell-based; conditions: Leukemia, 1.00E−5 Molar
Method: as §1

[6] = system: K562; test: NCI in vitro DTP human cell line screen, K562; type: cell-based; conditions: Leukemia, 1.00E−5 Molar
Method: as §1

[7] = system: MOLT-4; test: NCI in vitro DTP human cell line screen, MOLT-4; type: cell-based; conditions: Leukemia, 1.00E−5 Molar
Method: as §1

[8] = system: RPMI-8226; test: NCI in vitro DTP human cell line screen, RPMI-8226; type: cell-based; conditions: Leukemia, 1.00E−5 Molar
Method: as §1

[9] = system: SR; test: NCI in vitro DTP human cell line screen, SR; type: cell-based; conditions: Leukemia, 1.00E−5 Molar
Method: as §1

[10] = system: HOP-62; test: NCI in vitro DTP human cell line screen, HOP-62; type: cell-based; conditions: Non-Small Cell Lung Cancer, 1.00E−5 Molar
Method: as §1

[11] = system: HOP-92; test: NCI in vitro DTP human cell line screen, HOP-92; type: cell-based; conditions: Non-Small Cell Lung Cancer, 1.00E−5 Molar
Method: as §1

[12] = system: NCI-H226; test: NCI in vitro DTP human cell line screen, NCI-H226; type: cell-based; conditions: Non-Small Cell Lung Cancer, 1.00E−5 Molar
Method: as §1

[13] = system: NCI-H23; test: NCI in vitro DTP human cell line screen, NCI-H23; type: cell-based; conditions: Non-Small Cell Lung Cancer, 1.00E−5 Molar
Method: as §1

[14] = system: NCI-H322M; test: NCI in vitro DTP human cell line screen, NCI-H322M; type: cell-based; conditions: Non-Small Cell Lung Cancer, 1.00E−5 Molar
Method: as §1

[15] = system: NCI-H460; test: NCI in vitro DTP human cell line screen, NCI-H460; type: cell-based; conditions: Non-Small Cell Lung Cancer, 1.00E−5 Molar
Method: as §1

[16] = system: NCI-H522; test: NCI in vitro DTP human cell line screen, NCI-H522; type: cell-based; conditions: Non-Small Cell Lung Cancer, 1.00E−5 Molar
Method: as §1

[17] = system: COLO 205; test: NCI in vitro DTP human cell line screen, COLO 205; type: cell-based; conditions: Colon Cancer, 1.00E−5 Molar
Method: as §1

[18] = system: HCC-2998; test: NCI in vitro DTP human cell line screen, HCC-2998; type: cell-based; conditions: Colon Cancer, 1.00E−5 Molar
Method: as §1

[19] = system: HCT-116; test: NCI in vitro DTP human cell line screen, HCT-116; type: cell-based; conditions: Colon Cancer, 1.00E−5 Molar
Method: as §1

[20] = system: HCT-15; test: NCI in vitro DTP human cell line screen, HCT-15; type: cell-based; conditions: Colon Cancer, 1.00E−5 Molar
Method: as §1

[21] = system: HT29; test: NCI in vitro DTP human cell line screen, HT29; type: cell-based; conditions: Colon Cancer, 1.00E−5 Molar
Method: as §1

[22] = system: KM12; test: NCI in vitro DTP human cell line screen, KM12; type: cell-based; conditions: Colon Cancer, 1.00E−5 Molar
Method: as §1

[23] = system: SW-620; test: NCI in vitro DTP human cell line screen, SW-620; type: cell-based; conditions: Colon Cancer, 1.00E−5 Molar
Method: as §1

[24] = system: SF-268; test: NCI in vitro DTP human cell line screen, SF-268; type: cell-based; conditions: CNS Cancer, 1.00E−5 Molar
Method: as §1

[25] = system: SF-539; test: NCI in vitro DTP human cell line screen, SF-539; type: cell-based; conditions: CNS Cancer, 1.00E−5 Molar
Method: as §1

[26] = system: SNB-19; test: NCI in vitro DTP human cell line screen, SNB-19; type: cell-based; conditions: CNS Cancer, 1.00E−5 Molar
Method: as §1

[27] = system: SNB-75; test: NCI in vitro DTP human cell line screen, SNB-75; type: cell-based; conditions: CNS Cancer, 1.00E−5 Molar
Method: as §1

[28] = system: U251; test: NCI in vitro DTP human cell line screen, U251; type: cell-based; conditions: CNS Cancer, 1.00E−5 Molar
Method: as §1

[29] = system: LOX IMVI; test: NCI in vitro DTP human cell line screen, LOX IMVI; type: cell-based; conditions: Melanoma, 1.00E−5 Molar
Method: as §1

[30] = system: MALME-3M; test: NCI in vitro DTP human cell line screen, MALME-3M; type: cell-based; conditions: Melanoma, 1.00E−5 Molar
Method: as §1

[31] = system: M14; test: NCI in vitro DTP human cell line screen, M14; type: cell-based; conditions: Melanoma, 1.00E−5 Molar
Method: as §1

[32] = system: SK-MEL-2; test: NCI in vitro DTP human cell line screen, SK-MEL-2; type: cell-based; conditions: Melanoma, 1.00E−5 Molar
Method: as §1

[33] = system: SK-MEL-28; test: NCI in vitro DTP human cell line screen, SK-MEL-28; type: cell-based; conditions: Melanoma, 1.00E−5 Molar
Method: as §1

[34] = system: SK-MEL-5; test: NCI in vitro DTP human cell line screen, SK-MEL-5; type: cell-based; conditions: Melanoma, 1.00E−5 Molar
Method: as §1

[35] = system: UACC-257; test: NCI in vitro DTP human cell line screen, UACC-257; type: cell-based; conditions: Melanoma, 1.00E−5 Molar
Method: as §1

[36] = system: UACC-62; test: NCI in vitro DTP human cell line screen, UACC-62; type: cell-based; conditions: Melanoma, 1.00E−5 Molar
Method: as §1

[37] = system: IGROV1; test: NCI in vitro DTP human cell line screen, IGROV1; type: cell-based; conditions: Ovarian Cancer, 1.00E−5 Molar
Method: as §1

[38] = system: OVCAR-3; test: NCI in vitro DTP human cell line screen, OVCAR-3; type: cell-based; conditions: Ovarian Cancer, 1.00E−5 Molar
Method: as §1

[39] = system: OVCAR-4; test: NCI in vitro DTP human cell line screen, OVCAR-4; type: cell-based; conditions: Ovarian Cancer, 1.00E−5 Molar
Method: as §1

[40] = system: OVCAR-5; test: NCI in vitro DTP human cell line screen, OVCAR-5; type: cell-based; conditions: Ovarian Cancer, 1.00E−5 Molar
Method: as §1

[41] = system: OVCAR-8; test: NCI in vitro DTP human cell line screen, OVCAR-8; type: cell-based; conditions: Ovarian Cancer, 1.00E−5 Molar
Method: as §1

[42] = system: NCI/ADR-RES; test: NCI in vitro DTP human cell line screen, NCI/ADR-RES; type: cell-based; conditions: Ovarian Cancer, 1.00E−5 Molar
Method: as §1

[43] = system: SK-OV-3; test: NCI in vitro DTP human cell line screen, SK-OV-3; type: cell-based; conditions: Ovarian Cancer, 1.00E−5 Molar
Method: as §1

[44] = system: 786-0; test: NCI in vitro DTP human cell line screen, 786-0; type: cell-based; conditions: Renal Cancer, 1.00E−5 Molar
Method: as §1

[45] = system: ACHN; test: NCI in vitro DTP human cell line screen, ACHN; type: cell-based; conditions: Renal Cancer, 1.00E−5 Molar
Method: as §1

[46] = system: RXF 393; test: NCI in vitro DTP human cell line screen, RXF 393; type: cell-based; conditions: Renal Cancer, 1.00E−5 Molar
Method: as §1

[47] = system: SN12C; test: NCI in vitro DTP human cell line screen, SN12C; type: cell-based; conditions: Renal Cancer, 1.00E−5 Molar
Method: as §1

[48] = system: TK-10; test: NCI in vitro DTP human cell line screen, TK-10; type: cell-based; conditions: Renal Cancer, 1.00E−5 Molar
Method: as §1

[49] = system: UO-31; test: NCI in vitro DTP human cell line screen, UO-31; type: cell-based; conditions: Renal Cancer, 1.00E−5 Molar
Method: as §1

[50] = system: PC-3; test: NCI in vitro DTP human cell line screen, PC-3; type: cell-based; conditions: Prostate Cancer, 1.00E−5 Molar
Method: as §1

[51] = system: DU145; test: NCI in vitro DTP human cell line screen, DU145; type: cell-based; conditions: Prostate Cancer, 1.00E−5 Molar
Method: as §1

[52] = system: MCF7; test: NCI in vitro DTP human cell line screen, MCF7; type: cell-based; conditions: Breast Cancer, 1.00E−5 Molar
Method: as §1

[53] = system: MDA-MB-231/ATCC; test: NCI in vitro DTP human cell line screen, MDA-MB-231/ATCC; type: cell-based; conditions: Breast Cancer, 1.00E−5 Molar
Method: as §1

[54] = system: HS 578-T; test: NCI in vitro DTP human cell line screen, HS 578-T; type: cell-based; conditions: Breast Cancer, 1.00E−5 Molar
Method: as §1

[55] = system: BT-549; test: NCI in vitro DTP human cell line screen, BT-549; type: cell-based; conditions: Breast Cancer, 1.00E−5 Molar
Method: as §1

[56] = system: T-47D; test: NCI in vitro DTP human cell line screen, T-47D; type: cell-based; conditions: Breast Cancer, 1.00E−5 Molar
Method: as §1

[57] = system: MDA-MB-468; test: NCI in vitro DTP human cell line screen, MDA-MB-468; type: cell-based; conditions: Breast Cancer, 1.00E−5 Molar
Method: as §1

[58] = system: 60 cancer lines; test: NCI cell toxicity assay of 60 cancer lines, whole panel summary; type: cell-based, human; conditions: 1.00E−5 Molar
Method: as §1

In the case of `O=c1c2ccccc2sc2c(Cl)c(SCc3ccc(F)cc3)ccc12` [No. 24, 4-Chloro-3-(4-fluorobenzylthio)-9H-thioxanthen-9-one], the “cell viabilities of A control cell lines (MTT assay)” value [1] is reported as 35.5%, the “cell viabilities of A3 cell lines (MTT assay)” value [2] is reported as 47.8% and the viability [3] is reported as 62.7 ± 4.89%. The “Growth Percent” value [4] was 68.02%, the “Growth Percent” value [5] was 109.87% and the “Growth Percent” value [6] was 90.35%. The “Growth Percent” value [7] was 93.42%, the “Growth Percent” value [8] was 92.73% and the “Growth Percent” value [9] was 23.41%. The “Growth Percent” value [10] was 70.93%, the “Growth Percent” value [11] was 76.43% and the “Growth Percent” value [12] was 92.71%. The “Growth Percent” value [13] was 93.31%, the “Growth Percent” value [14] was 89.87% and the “Growth Percent” value [15] was 60.27%. The “Growth Percent” value [16] was 76.14%, the “Growth Percent” value [17] was 86.59% and the “Growth Percent” value [18] was 100.08%. For the same molecule, the “Growth Percent” value [19] was 76.97%, the “Growth Percent” value [20] was 84.86% and the “Growth Percent” value [21] was 79.24%. The “Growth Percent” value [22] was 102.36%, the “Growth Percent” value [23] was 78.63% and the “Growth Percent” value [24] was 95.00%. The “Growth Percent” value [25] was 103.66%, the “Growth Percent” value [26] was 77.05% and the “Growth Percent” value [27] was 64.79%. The “Growth Percent” value [28] was 54.73%, the “Growth Percent” value [29] was 81.78% and the “Growth Percent” value [30] was 93.42%. The “Growth Percent” value [31] was 93.91%, the “Growth Percent” value [32] was 108.61% and the “Growth Percent” value [33] was 107.78%. The “Growth Percent” value [34] was 95.97%, the “Growth Percent” value [35] was 103.43% and the “Growth Percent” value [36] was 85.61%. For the same molecule, the “Growth Percent” value [37] was 79.84%, the “Growth Percent” value [38] was 105.27% and the “Growth Percent” value [39] was 39.31%. The “Growth Percent” value [40] was 108.14%, the “Growth Percent” value [41] was 85.39% and the “Growth Percent” value [42] was 92.71%. For the same molecule, the “Growth Percent” value [43] was 90.11%, the “Growth Percent” value [44] was 91.67% and the “Growth Percent” value [45] was 60.81%. The “Growth Percent” value [46] was 92.20%, the “Growth Percent” value [47] was 84.46% and the “Growth Percent” value [48] was 83.61%. The “Growth Percent” value [49] was 95.13%, the “Growth Percent” value [50] was 86.19% and the “Growth Percent” value [51] was 103.70%. For the same molecule, the “Growth Percent” value [52] was 89.93%, the “Growth Percent” value [53] was 81.64% and the “Growth Percent” value [54] was 67.70%. For the same molecule, the “Growth Percent” value [55] was 88.80%, the “Growth Percent” value [56] was 81.88% and the “Growth Percent” value [57] was 92.16%. The “Growth Percent, Mean” value ([58]; mean over all cell lines) was 85.42% and the “cancer types with the better inhibition effect (in words)” value ([58]; summary of Table 3) was “better inhibition effect on Leukemia and central nervous system cancer”.
